This passage reports IC50 results from US10457655B2, “Compounds and compositions for inhibition of FASN” (FORMA Therapeutics, Inc., priority 2013, dated 2019).

The target in the first test is FASN enzyme (Homo sapiens, UniProt P49327). Put plainly: Enzymatic Assay for FASN Inhibitors. The test is classed as biochemical.
Sequence of FASN enzyme (P49327 whole entry): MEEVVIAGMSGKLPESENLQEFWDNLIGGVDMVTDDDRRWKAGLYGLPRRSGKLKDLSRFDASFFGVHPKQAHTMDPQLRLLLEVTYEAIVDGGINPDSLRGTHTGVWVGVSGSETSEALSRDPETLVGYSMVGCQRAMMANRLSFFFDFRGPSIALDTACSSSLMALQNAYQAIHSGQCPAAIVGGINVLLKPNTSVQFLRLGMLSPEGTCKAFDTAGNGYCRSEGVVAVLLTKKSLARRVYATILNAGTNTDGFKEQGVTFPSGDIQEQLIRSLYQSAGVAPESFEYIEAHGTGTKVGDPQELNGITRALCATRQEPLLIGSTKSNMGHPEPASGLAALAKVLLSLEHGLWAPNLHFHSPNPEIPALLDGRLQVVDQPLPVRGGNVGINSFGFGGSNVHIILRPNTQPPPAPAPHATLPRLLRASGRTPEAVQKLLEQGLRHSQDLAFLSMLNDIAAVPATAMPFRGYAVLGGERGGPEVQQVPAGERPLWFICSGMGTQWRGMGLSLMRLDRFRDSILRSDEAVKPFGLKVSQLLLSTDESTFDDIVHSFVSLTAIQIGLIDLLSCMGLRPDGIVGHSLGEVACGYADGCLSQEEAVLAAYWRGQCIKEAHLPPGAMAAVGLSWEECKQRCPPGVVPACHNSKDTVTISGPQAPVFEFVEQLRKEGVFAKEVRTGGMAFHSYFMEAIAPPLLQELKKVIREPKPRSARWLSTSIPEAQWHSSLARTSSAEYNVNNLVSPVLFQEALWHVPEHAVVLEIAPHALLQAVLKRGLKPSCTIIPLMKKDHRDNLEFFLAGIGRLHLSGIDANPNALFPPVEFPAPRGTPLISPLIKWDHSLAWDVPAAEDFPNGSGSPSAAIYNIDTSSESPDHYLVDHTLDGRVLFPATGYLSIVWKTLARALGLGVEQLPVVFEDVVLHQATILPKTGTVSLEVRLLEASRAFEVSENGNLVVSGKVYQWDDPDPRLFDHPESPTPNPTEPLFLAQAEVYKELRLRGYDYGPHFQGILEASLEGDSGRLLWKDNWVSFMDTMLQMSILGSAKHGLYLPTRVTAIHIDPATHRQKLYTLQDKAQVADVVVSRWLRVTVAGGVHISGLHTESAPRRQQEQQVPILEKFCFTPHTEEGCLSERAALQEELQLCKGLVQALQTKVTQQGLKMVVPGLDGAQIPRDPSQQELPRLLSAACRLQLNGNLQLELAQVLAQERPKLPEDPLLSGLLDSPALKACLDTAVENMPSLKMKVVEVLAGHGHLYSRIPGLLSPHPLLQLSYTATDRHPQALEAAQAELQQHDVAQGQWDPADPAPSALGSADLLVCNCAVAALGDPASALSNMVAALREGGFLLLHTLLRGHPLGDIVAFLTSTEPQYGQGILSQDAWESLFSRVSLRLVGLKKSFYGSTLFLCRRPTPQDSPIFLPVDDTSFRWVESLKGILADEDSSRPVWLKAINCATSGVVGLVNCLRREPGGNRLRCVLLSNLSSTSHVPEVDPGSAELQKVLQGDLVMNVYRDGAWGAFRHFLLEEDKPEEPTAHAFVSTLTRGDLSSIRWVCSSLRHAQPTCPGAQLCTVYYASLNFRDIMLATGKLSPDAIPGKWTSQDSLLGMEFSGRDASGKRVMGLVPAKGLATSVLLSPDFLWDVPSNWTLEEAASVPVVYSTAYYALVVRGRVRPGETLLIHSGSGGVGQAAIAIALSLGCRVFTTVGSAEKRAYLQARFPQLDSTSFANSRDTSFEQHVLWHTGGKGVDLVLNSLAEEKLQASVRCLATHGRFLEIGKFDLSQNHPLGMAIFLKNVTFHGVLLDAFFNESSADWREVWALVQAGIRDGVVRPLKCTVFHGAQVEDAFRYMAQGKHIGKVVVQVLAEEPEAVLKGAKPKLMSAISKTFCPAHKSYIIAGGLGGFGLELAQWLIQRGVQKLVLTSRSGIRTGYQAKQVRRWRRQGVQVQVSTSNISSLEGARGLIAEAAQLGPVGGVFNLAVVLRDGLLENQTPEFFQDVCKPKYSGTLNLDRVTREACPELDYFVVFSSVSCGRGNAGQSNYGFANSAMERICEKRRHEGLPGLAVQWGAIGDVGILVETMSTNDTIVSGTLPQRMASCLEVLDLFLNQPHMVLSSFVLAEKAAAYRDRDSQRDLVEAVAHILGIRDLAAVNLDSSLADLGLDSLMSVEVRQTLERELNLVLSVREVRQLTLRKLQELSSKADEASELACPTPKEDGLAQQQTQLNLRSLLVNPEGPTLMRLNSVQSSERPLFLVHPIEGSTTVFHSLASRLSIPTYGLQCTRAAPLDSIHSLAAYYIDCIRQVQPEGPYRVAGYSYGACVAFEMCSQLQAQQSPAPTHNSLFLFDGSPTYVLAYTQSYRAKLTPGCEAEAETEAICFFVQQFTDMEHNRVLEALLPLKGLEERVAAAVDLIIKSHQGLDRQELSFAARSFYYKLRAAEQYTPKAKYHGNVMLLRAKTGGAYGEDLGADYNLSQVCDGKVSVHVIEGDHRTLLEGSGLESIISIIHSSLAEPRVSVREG
Conditions: not given
How it is done:
Assays were performed in a 384-well black plate to measure the inhibition of FASN activities by individual compounds herein disclosed. An aliquot of 250 nL of compound was incubated with 10 μL of 40 nM FASN enzyme in assay buffer (50 mM HEPES pH=7.3, 0.5 mM EDTA, 1 mM Ascorbate, 100 mM NaCl and 0.04% TritonX-100) in each well at 25° C. for 60 minutes. After the plate was centrifuged briefly, 10 μL of substrate mix (20 μM Acetyl-CoA, 60 μM Malonyl-CoA, and 100 μM NADPH in assay buffer) was added to each well. The reaction was maintained at 25° C. for 90 minutes. The reaction was then quenched by adding 10 μL of 90 μM 7-Diethylamino-3-(4′-Maleimidylpheynyl)-4-Methylcoumarin in 50/50 Ethanol/H2O solution. The assay plate was incubated at 25° C. for 15 minutes, and read on a plate reader with excitation and emission wavelength at 360 nm and 530 nm, respectively. The IC50 of a given compound was calculated by fitting the dose response curve with a four parameter logistic equation.
For the compound `Cn1ncc2ccc(-c3ccc(C(=O)N4CCN(C(=O)C5(N)CC5)CC4)cc3)cc21`, the IC50 was under 500 nM.

With `O=C(c1ccc(N2CCc3ccccc32)cc1)N1CCN(C(=O)C2(O)CC2)CC1` [1-{4-[4-(2,3-dihydro-1H-indol-1-yl)benzoyl]piperazine-1-carbonyl}cyclopropan-1-ol], the IC50 was under 500 nM.

Compound `Cc1n[nH]c2cc(-c3ccc(C(=O)N4CCN(C(=O)C5(O)CC5)CC4)c(F)c3)ccc12` had an IC50 of under 500 nM.

Turning to `Cn1cnc2cc(-c3ccc(C(=O)N4CCN(C(=O)C5(O)CC5)CC4)cc3F)ccc21` [1-{4-[3-fluoro-4-(1-methyl-1H-1,3-benzodiazol-5-yl)benzoyl]piperazine-1-carbonyl}cyclopropan-1-ol], the IC50 is under 500 nM.

`COc1cc(Cl)ccc1-c1ccc(C(=O)N2CCN(C(=O)C3(O)CC3)CC2)cc1` [1-[(4-{[4-(4-chloro-2-methoxyphenyl)phenyl]carbonyl}piperazin-1-yl)carbonyl]cyclopropan-1-ol] registered a half-maximal inhibitory concentration (IC50) of under 500 nM.

`Nc1nc(-c2cccc(-c3ccc(C(=O)N4CCN(C(=O)C5(O)CC5)CC4)cc3)c2)n[nH]1` [1-(4-{4-[3-(5-amino-1H-1,2,4-triazol-3-yl)phenyl]benzoyl}piperazine-1-carbonyl)cyclopropan-1-ol] registered an IC50 of under 500 nM.

`C[C@H]1CN(C(=O)C2(O)CC2)CCN1C(=O)c1ccc(-c2nc3ccc(F)cc3o2)cc1` [1-[(3S)-4-[4-(6-fluoro-1,3-benzoxazol-2-yl)benzoyl]-3-methylpiperazine-1-carbonyl]cyclopropan-1-ol] displayed an IC50 of under 500 nM.

Regarding `O=C(c1ccc(-c2cccc(NS(=O)(=O)CCC(F)(F)F)c2)cc1)N1CCN(C(=O)C2(O)CC2)CC1` [3,3,3-trifluoro-N-(3-{4-[4-(1-hydroxycyclopropanecarbonyl)piperazine-1-carbonyl]phenyl}phenyl)propane-1-sulfonamide], the IC50 is under 500 nM.

Compound `CNC(=O)COc1cccc(-c2ccc(C(=O)N3CCN(C(=O)C4(O)CC4)CC3)cc2)c1` [2-(3-{4-[4-(1-hydroxycyclopropanecarbonyl)piperazine-1-carbonyl]phenyl}phenoxy)-N-methylacetamide] registered an IC50 of under 500 nM.

Take `O=C(c1ccc(-c2cccc(N3CCNC3=O)c2)cc1)N1CCN(C(=O)C2(O)CC2)CC1` [1-(3-{4-[4-(1-hydroxycyclopropanecarbonyl)piperazine-1-carbonyl]phenyl}phenyl)imidazolidin-2-one]: the IC50 is under 500 nM.

The compound `C[C@@H]1CN(C(=O)c2ccc(-c3nc4ccc(F)cc4o3)cc2)CCN1C(=O)C1(O)CC1` [1-[(2R)-4-[4-(6-fluoro-1,3-benzoxazol-2-yl)benzoyl]-2-methylpiperazine-1-carbonyl]cyclopropan-1-ol] came in with an IC50 of under 500 nM.

The compound `O=C(c1ccc(-c2cc(Cl)ccc2F)cc1Cl)N1CCN(C(=O)C2(O)CC2)CC1` [1-{4-[2-chloro-4-(5-chloro-2-fluorophenyl)benzoyl]piperazine-1-carbonyl}cyclopropan-1-ol] showed an IC50 of under 500 nM.

As for `Cc1nc(-c2cccc(-c3ccc(C(=O)N4CCN(C(=O)C5(O)CC5)CC4)cc3)c2)no1` [1-(4-{4-[3-(5-methyl-1,2,4-oxadiazol-3-yl)phenyl]benzoyl}piperazine-1-carbonyl)cyclopropan-1-ol], the IC50 was under 500 nM.

For `COc1ccc2c(c1)CN(c1ccc(C(=O)N3CCN(C(=O)C4(O)CC4)CC3)cc1)CC2` [1-{4-[4-(7-methoxy-1,2,3,4-tetrahydroisoquinolin-2-yl)benzoyl]piperazine-1-carbonyl}cyclopropan-1-ol], the IC50 was under 500 nM.

Compound `N#Cc1ccc2c(c1)CN(c1ccc(C(=O)N3CCN(C(=O)C4(O)CC4)CC3)cc1)CC2` [2-{4-[4-(1-hydroxycyclopropanecarbonyl)piperazine-1-carbonyl]phenyl}-1,2,3,4-tetrahydroisoquinoline-7-carbonitrile] had a concentration for half-maximal inhibition (IC50) of under 500 nM.

Regarding `Cn1ncc2ccc(-c3ccc(C(=O)N4CCN(C(=O)C5(O)CC5)CC4)c(Cl)c3)cc21` [1-{4-[2-chloro-4-(1-methyl-1H-indazol-6-yl)benzoyl]piperazine-1-carbonyl}cyclopropan-1-ol], the IC50 was under 500 nM.

With `O=C(c1ccc(-c2nc3ccc(Cl)cc3o2)c(Cl)c1)N1CCN(C(=O)C2(O)CC2)CC1` [1-{4-[3-chloro-4-(6-chloro-1,3-benzoxazol-2-yl)benzoyl]piperazine-1-carbonyl}cyclopropan-1-ol], the half-maximal inhibitory concentration (IC50) was under 500 nM.

With `O=C(c1ccc(-c2ccc3c(c2)ncn3CCO)cc1)N1CCN(C(=O)C2(O)CC2)CC1` [1-(4-{4-[1-(2-hydroxyethyl)-1H-1,3-benzodiazol-5-yl]benzoyl}piperazine-1-carbonyl)cyclopropan-1-ol], the IC50 was under 500 nM.

The compound `O=C(c1ccc(-c2ccc3cc(F)ccc3n2)cc1)N1CCN(C(=O)C2(O)CC2)CC1` [1-[(4-{[4-(6-fluoroquinolin-2-yl)phenyl]carbonyl}piperazin-1-yl)carbonyl]cyclopropan-1-ol] displayed a 50% inhibitory concentration (IC50) of under 500 nM.

As to `O=C(c1ccc(-c2ccc3[nH]c(=O)ccc3c2)cc1)N1CCN(C(=O)C2(O)CC2)CC1`, the IC50 was under 500 nM.

Compound `Nc1cc(-c2cccc(-c3ccc(C(=O)N4CCN(C(=O)C5(O)CC5)CC4)cc3)c2)no1` [1-(4-{4-[3-(5-amino-1,2-oxazol-3-yl)phenyl]benzoyl}piperazine-1-carbonyl)cyclopropan-1-ol] registered an IC50 of under 500 nM.

`O=C(c1ccc(N2CCc3cccnc3C2)cc1F)N1CCN(C(=O)C2(O)CC2)CC1` [1-{4-[2-fluoro-4-(5,6,7,8-tetrahydro-1,7-naphthyridin-7-yl)benzoyl]piperazine-1-carbonyl}cyclopropan-1-ol] came in with an IC50 of under 500 nM.

`N#CCc1cccc(-c2ccc(C(=O)N3CCN(C(=O)C4(O)CC4)CC3)cc2)c1` [2-(3-{4-[4-(1-hydroxycyclopropanecarbonyl)piperazine-1-carbonyl]phenyl}phenyl)acetonitrile] returned a half-inhibitory concentration (IC50) of under 500 nM.

`Cn1ncc2ccc(-c3ccc(C(=O)N4CCN(C(=O)C5(O)CC5)CC4)c(F)c3)cc21` [1-{4-[2-fluoro-4-(1-methyl-1H-indazol-6-yl)benzoyl]piperazine-1-carbonyl}cyclopropan-1-ol] registered an IC50 of under 500 nM.

Take `O=C(c1ccc(-c2ccccc2)cc1)N1CCN(C(=O)C2(O)CC2)CC1` [1-({4-[(4-phenylphenyl)carbonyl]piperazin-1-yl}carbonyl)cyclopropan-1-ol]: the IC50 is under 500 nM.

`C[C@@H]1CN(C(=O)c2ccc(-c3nc4ccc(F)cc4o3)cc2)C[C@H](C)N1C(=O)C1(O)CC1` came in with an IC50 of under 500 nM.

Compound `O=C(c1ccc(-c2cccc(S(=O)(=O)NC3CC3)c2)cc1)N1CCN(C(=O)C2(O)CC2)CC1` [N-cyclopropyl-3-[4-({4-[(1-hydroxycyclopropyl)carbonyl]piperazin-1-yl}carbonyl)phenyl]benzene-1-sulfonamide] gave an IC50 of under 500 nM.

`Cn1ncc2ccc(-c3cc(F)c(C(=O)N4CCN(C(=O)C5(O)CC5)CC4)c(F)c3)cc21` [1-{4-[2,6-difluoro-4-(1-methyl-1H-indazol-6-yl)benzoyl]piperazine-1-carbonyl}cyclopropan-1-ol] returned an IC50 of under 500 nM.

Take `Cn1ccc2cc(-c3cnc(C(=O)N4CCN(C(=O)C5(O)CC5)CC4)cn3)ccc21` [1-[(4-{[5-(1-methyl-1H-indol-5-yl)pyrazin-2-yl]carbonyl}piperazin-1-yl)carbonyl]cyclopropan-1-ol]: the IC50 was under 500 nM.

The test is the same for the next values; noted with them: FASN enzymatic assay; Table 2-2.
Turning to `O=C(c1ccc(-c2nc3cc(F)c(F)cc3[nH]2)cc1)N1CCN(C(=O)C2(O)CC2)CC1` [1-[(4-{[4-(5,6-difluoro-1H-1,3-benzodiazol-2-yl)phenyl]carbonyl}piperazin-1-yl)carbonyl]cyclopropan-1-ol], the IC50 was in the range of 500 to 5000 nM.

Consider `O=C(c1ncc(-c2ccc(Cl)cc2F)cn1)N1CCN(C(=O)C2(O)CC2)CC1` [1-[(4-{[5-(4-chloro-2-fluorophenyl)pyrimidin-2-yl]carbonyl}piperazin-1-yl)carbonyl]cyclopropan-1-ol], for which the IC50 was in the range of 500 to 5000 nM.

Regarding `COc1ccc2cc(-c3ccc(C(=O)N4CCN(C(=O)C5(O)CC5)CC4)cn3)ccc2n1` [1-[(4-{[6-(2-methoxyquinolin-6-yl)pyridin-3-yl]carbonyl}piperazin-1-yl)carbonyl]cyclopropan-1-ol], the 50% inhibitory concentration (IC50) is 500 to 5000 nM.

`COc1ccc(-c2ccc(C(=O)N3CCN(C(=O)C4(O)CC4)CC3)cc2)c(F)c1` [1-[(4-{[4-(2-fluoro-4-methoxyphenyl)phenyl]carbonyl}piperazin-1-yl)carbonyl]cyclopropan-1-ol] displayed an IC50 of 500 to 5000 nM.

`COc1cc(-c2ccc3ncccc3c2)ccc1C(=O)N1CCN(C(=O)C2(O)CC2)CC1` [1-[(4-{[2-methoxy-4-(quinolin-6-yl)phenyl]carbonyl}piperazin-1-yl)carbonyl]cyclopropan-1-ol] displayed an IC50 of 500 to 5000 nM.

The same test, now with this note: FASN enzymatic assay; Table 2-3.
As for `CC(C)(O)C(=O)N1CCN(C(=O)c2ccc(-c3ccccc3)cc2)CC1` [2-hydroxy-2-methyl-1-{4-[(4-phenylphenyl)carbonyl]piperazin-1-yl}propan-1-one], the IC50 was at least 5000 nM.

The compound `Cc1cccc(-c2ccc(C(=O)N3CCN(C(=O)C4(O)CC4)CC3)cc2)c1` [1-[(4-{[4-(3-methylphenyl)phenyl]carbonyl}piperazin-1-yl)carbonyl]cyclopropan-1-ol] returned a 50% inhibitory concentration (IC50) of at least 5000 nM.

Turning to `O=C(c1ccc(-c2cnc3cccnc3c2)cc1)N1CCN(C(=O)C2(O)CC2)CC1` [1-[(4-{[4-(1,5-naphthyridin-3-yl)phenyl]carbonyl}piperazin-1-yl)carbonyl]cyclopropan-1-ol], the IC50 is at least 5000 nM.
